Literature values in article PMC10464202, “Discovery of novel JAK1 inhibitors through combining machine learning, structure-based pharmacophore modeling and bio-evaluation” (Journal of Translational Medicine, 2023).

Molecular target: JAK1 (Homo sapiens, UniProt P23458)
Conditions: JAK1 inhibitors obtained by literature search; read-out: IC50 of training set (Hiphop)

Sequence of JAK1 (P23458 whole entry): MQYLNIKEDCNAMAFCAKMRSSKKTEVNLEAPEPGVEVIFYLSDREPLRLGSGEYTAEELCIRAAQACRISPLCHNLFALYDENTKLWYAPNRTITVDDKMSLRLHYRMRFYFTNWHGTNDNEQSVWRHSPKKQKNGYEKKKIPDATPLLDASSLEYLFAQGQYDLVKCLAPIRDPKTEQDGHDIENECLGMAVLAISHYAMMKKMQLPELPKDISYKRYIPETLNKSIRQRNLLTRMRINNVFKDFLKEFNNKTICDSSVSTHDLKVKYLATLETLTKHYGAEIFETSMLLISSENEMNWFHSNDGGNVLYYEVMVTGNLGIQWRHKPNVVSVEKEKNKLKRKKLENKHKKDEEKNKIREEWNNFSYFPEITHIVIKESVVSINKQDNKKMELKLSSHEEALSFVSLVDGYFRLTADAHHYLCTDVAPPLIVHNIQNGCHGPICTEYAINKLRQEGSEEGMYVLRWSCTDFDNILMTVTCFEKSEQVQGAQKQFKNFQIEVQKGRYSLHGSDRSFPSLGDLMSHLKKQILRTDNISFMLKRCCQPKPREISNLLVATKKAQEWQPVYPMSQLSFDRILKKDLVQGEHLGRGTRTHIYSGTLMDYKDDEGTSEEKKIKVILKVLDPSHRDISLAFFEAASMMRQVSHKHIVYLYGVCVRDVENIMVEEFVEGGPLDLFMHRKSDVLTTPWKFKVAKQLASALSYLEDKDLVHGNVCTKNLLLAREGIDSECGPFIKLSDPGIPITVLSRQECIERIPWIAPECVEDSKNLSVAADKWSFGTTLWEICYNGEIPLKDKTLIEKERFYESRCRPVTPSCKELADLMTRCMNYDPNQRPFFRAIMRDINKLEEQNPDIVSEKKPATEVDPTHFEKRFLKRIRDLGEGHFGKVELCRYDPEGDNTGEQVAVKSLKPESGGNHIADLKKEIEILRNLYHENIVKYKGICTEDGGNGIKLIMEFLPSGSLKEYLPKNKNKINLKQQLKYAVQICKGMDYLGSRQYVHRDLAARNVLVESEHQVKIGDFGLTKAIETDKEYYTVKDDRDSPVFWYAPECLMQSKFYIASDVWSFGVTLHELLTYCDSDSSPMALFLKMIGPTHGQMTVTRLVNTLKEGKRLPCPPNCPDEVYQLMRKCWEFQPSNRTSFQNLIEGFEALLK

- IC50: 4 nM
SMILES: Cc1ccc(C(=O)Nc2cccc3c(-c4nc(Nc5cnn(C)c5)ncc4C)c[nH]c23)c(C)n1 [Compound 5]
